Laboratory results taken from US20240383904A1, “HETEROCYCLIC COMPOUNDS” (Hoffmann-La Roche Inc., priority 2021, published 2024).

Target: T1, MAGL (Homo sapiens, UniProt Q99685)
T1 sequence (Q99685 1-303): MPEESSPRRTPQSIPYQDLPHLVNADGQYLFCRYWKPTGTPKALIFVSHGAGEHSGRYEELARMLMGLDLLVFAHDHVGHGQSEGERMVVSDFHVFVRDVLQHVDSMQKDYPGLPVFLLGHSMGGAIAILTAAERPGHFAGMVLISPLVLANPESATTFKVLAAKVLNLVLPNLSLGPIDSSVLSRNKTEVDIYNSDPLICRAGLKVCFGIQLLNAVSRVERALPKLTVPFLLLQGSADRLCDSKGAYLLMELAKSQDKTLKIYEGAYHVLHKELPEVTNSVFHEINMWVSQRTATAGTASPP
Test: 2-AG assay: MAGL inhibitory activity by hydrolysis of 2-arachidonoylglycerol to arachidonic acid, followed by mass spectrometry
Format: biochemical
Conditions: 15 min preincubation, 30 min reaction at RT, 8 μM 2-arachidonoylglycerol

| IC50 | SMILES |
| --- | --- |
| 0.78 nM | N#Cc1cc(CC2CC3(C2)CN(C(=O)N2CC4(CCC(=O)N4)C2)C3)cc(C(F)(F)F)c1 [Example 217, 3-[[2-(6-oxo-2,5-diazaspiro[3.4]octane-2-carbonyl)-2-azaspiro[3.3]heptan-6-yl]methyl]-5-(trifluoromethyl)benzoni-trile] |
| 0.32 nM | CS(=O)(=O)c1ccc(CC2CC3(C2)CN(C(=O)N2CC4(COC(=O)N4)C2)C3)cc1C(F)(F)F [Example 44, 2-[6-[4-mesyl-3-(trifluoromethyl)benzyl]-2-azaspiro[3.3]heptane-2-carbonyl]-7-oxa-2,5-diazaspiro[3.4]octan-6-one] |
| 61.6 nM | O=C1NC2(CO1)CN(C(=O)N1CC3(C1)CN(c1ncc(C(F)(F)F)cc1F)C3)C2 [Example 203, 2-[6-[3-fluoro-5-(trifluoromethyl)-2-pyridyl]-2,6-diazaspiro[3.3]heptane-2-carbonyl]-7-oxa-2,5-diazaspiro[3.4]octan-6-one] |
| 0.91 nM | N=S(=O)(c1cccc(CC2CC3(C2)CN(C(=O)N2CC4(CCC(=O)N4)C2)C3)c1)C(F)(F)F (centres unmarked) [Example 1] |
| 0.14 nM | CS(=O)(=O)c1cc(C(F)(F)F)ccc1CC1CC2(C1)CN(C(=O)N1CC3(COC(=O)N3)C1)C2 [Example 27, 2-[6-[2-mesy1-4-(trifluoromethyl)benzyl]-2-azaspiro[3.3]heptane-2-carbonyl]-7-oxa-2,5-diazaspiro[3.4]octan-6-one] |
| 3.04 nM | CS(=O)(=O)c1cc(CC2CC3(C2)CN(C(=O)N2CC4(CCC(=O)N4)C2)C3)ccc1C(F)(F)F [Example 40, 2-[6-[3-mesyl-4-(trifluoromethyl)benzyl]-2-azaspiro[3.3]heptane-2-carbonyl]-2,5-diazaspiro[3.4]octan-6-one] |
| 1.28 nM | O=C1NC2(CO1)CN(C(=O)N1CC3(CC(c4cnc(C(F)(F)F)cn4)C3)C1)C2 [Example 63, 2-[6-[5-(trifluoromethyl)pyrazin-2-yl]-2-azaspiro[3.3]heptane-2-carbonyl]-7-oxa-2,5-diazaspiro[3.4]octan-6-one] |
| 6.19 nM | O=C1NC2(CO1)CN(C(=O)N1CC3(CC(N4CC(C(F)(F)F)C4)C3)C1)C2 [Example 80, 2-[6-[3-(trifluoromethyl)azetidin-1-y1]-2-azaspiro[3.3]heptane-2-carbonyl]-7-oxa-2,5-diazaspiro[3.4]octan-6-one] |
| 6.17 nM | Cn1nc(C(F)(F)F)cc1CC1CC2(C1)CN(C(=O)N1CC3(CCC(=O)N3)C1)C2 [Example 246, 2-[6-[[2-methyl-5-(trifluoromethyl)pyrazol-3-yl]methyl]-2-azaspiro[3.3]heptane-2-carbonyl]-2,5-diazaspiro[3.4]octan-6-one] |
| 2.3 nM | O=C1NC2(CO1)CN(C(=O)N1CC3(CC(c4cnc(C(F)(F)F)nc4)C3)C1)C2 [Example 78, 2-[6-[2-(trifluoromethyl)pyrimi-din-5-yl]-2-azaspiro[3.3]heptane-2-carbonyl]-7-oxa-2,5-diazaspiro[3.4]octan-6-one] |
| 68.8 nM | N#Cc1ccc(OC2CC3(C2)CN(C(=O)N2CC4(COCC(=O)N4)C2)C3)cc1C(F)(F)F [Example 302, 4-[[2-(6-oxo-8-oxa-2,5-diazaspiro[3.5]nonane-2-carbonyl)-2-azaspiro[3.3]heptan-6-yl]oxy]-2-(trifluoromethyl)benzoni-trile] |
| 1240 nM | O=C1COCC2(CN(C(=O)N3CC4(CCN(Cc5ccc(C(F)(F)F)nc5)C4)C3)C2)N1 [Example 240, 2-[7-[[6-(trifluoromethyl)-3-pyridyl]methyl]-2,7-diazaspiro[3.4]octane-2-carbonyl]-8-oxa-2,5-diazaspiro[3.5]nonan-6-one] |
| 165 nM | O=C1CCC2(CN(C(=O)N3CC4(CCN(Cc5cc(C(F)(F)F)[nH]n5)CC4)C3)C2)N1 [Example 350, 2-[7-[[5-(trifluoromethyl)-1H-pyrazol-3-yl]methyl]-2,7-diazaspiro[3.5]nonane-2-carbonyl]-2,5-diazaspiro[3.4]octan-6-one] |
| 0.08 nM | O=C1NC2(CO1)CN(C(=O)N1CC3(CC(c4ccc(C(F)(F)F)cc4F)C3)C1)C2 [Example 107] |
| 52.8 nM | O=C1COCC2(CN(C(=O)N3CC4(CC(Cn5ccc(C(F)(F)F)n5)C4)C3)C2)N1 [Example 239, 2-[6-[[3-(trifluoromethyl)pyrazol-1-yl]methyl]-2-azaspiro[3.3]heptane-2-carbonyl]-8-oxa-2,5-diazaspiro[3.5]nonan-6-one] |
| 45.6 nM | N=[S@@](=O)(c1cccc(CC2CC3(C2)CN(C(=O)N2CC4(CCCC(=O)N4)C2)C3)c1)C(F)(F)F [Example 290, 2-[6-[[3-(trifluoromethylsulfoni-midoyl)phenyl]methyl]-2-azaspiro[3.3]heptane-2-carbonyl]-2,5-diazaspiro[3.5]nonan-6-one] |

| IC50 | SMILES |
| --- | --- |
| 2.13 nM | O=C1NC2(CO1)CN(C(=O)N1CC3(CCC(Oc4ccnc(C(F)(F)F)n4)CC3)C1)C2 [Example 68, 2-[7-[2-(trifluoromethyl)pyrimi-din-4-yl]oxy-2-azaspiro[3.5]nonane-2-carbonyl]-7-oxa-2,5-diazaspiro[3.4]octan-6-one] |
| 0.44 nM | N=[S@@](=O)(c1cccc(CC2CC3(C2)CN(C(=O)N2CC4(CCC(=O)N4)C2)C3)c1)C(F)(F)F [Example 289, 2-[6-[[3-(trifluoromethylsulfoni-midoyl)phenyl]methyl]-2-azaspiro[3.3]heptane-2-carbonyl]-2,5-diazaspiro[3.4]octan-6-one] |
| 2.01 nM | O=C1COCC2(CN(C(=O)N3CC4(CC(Cc5ccc(OC(F)(F)F)cn5)C4)C3)C2)N1 [Example 177, 2-[6-[[5-(trifluoromethoxy)-2-pyridyl]methyl]-2-azaspiro[3.3]heptane-2-carbonyl]-8-oxa-2,5-diazaspiro[3.5]nonan-6-one] |
| 15.9 nM | Cc1cc(C(F)(F)F)n(CC2CC3(C2)CN(C(=O)N2CC4(CCC(=O)N4)C2)C3)n1 [Example 328, 2-[6-[[3-methyl-5-(trifluoromethyl)pyrazol-1-yl]methyl]-2-azaspiro[3.3]heptane-2-carbonyl]-2,5-diazaspiro[3.4]octan-6-one] |
| 4.18 nM | O=C1CCC2(CN(C(=O)N3CC4(CC(Cc5cc(C(F)(F)F)n[nH]5)C4)C3)C2)N1 [Example 220, 2-[6-[[3-(trifluoromethyl)-1H-pyrazol-5-yl]methyl]-2-azaspiro[3.3]heptane-2-carbonyl]-2,5-diazaspiro[3.4]octan-6-one] |
| 68.2 nM | N#Cc1ccc(CC2CC3(C2)CN(C(=O)N2CC4(CCCC(=O)N4)C2)C3)c(F)c1 [Example 273, 3-fluoro-4-[[2-(6-oxo-2,5-diazaspiro[3.5]nonane-2-carbonyl)-2-azaspiro[3.3]heptan-6-yl]methyl]benzonitrile] |
| 16.1 nM | O=C1CCC2(CN(C(=O)N3CC4(CC(Cc5cc(C(F)(F)F)c[nH]c5=O)C4)C3)C2)N1 [Example 329, 2-[6-[[2-keto-5-(trifluoromethyl)-1H-pyridin-3-yl]methyl]-2-azaspiro[3.3]heptane-2-carbonyl]-2,5-diazaspiro[3.4]octan-6-one] |
| 0.98 nM | O=C1NC2(CO1)CN(C(=O)N1CC3(CCC(OCC4(C(F)(F)F)CC4)CC3)C1)C2 [Example 62, 2-[7-[[1-(trifluoromethyl)cyclopro-pyl]methoxy]-2-azaspiro[3.5]nonane-2-carbonyl]-7-oxa-2,5-diazaspiro[3.4]octan-6-one] |
| 26.3 nM | O=C1NCC2(CN(C(=O)N3CC4(CCC(Cc5ccc(C(F)(F)F)cn5)CC4)C3)C2)N1 [Example 45, 2-[7-[[5-(trifluoromethyl)-2-pyridyl]methyl]-2-azaspiro[3.5]nonane-2-carbonyl]-2,5,7-triazaspiro[3.4]octan-6-one] |
| 15.4 nM | N#Cc1ccc(OC2CC3(C2)CN(C(=O)N2CC4(CCC(=O)N4)C2)C3)cc1C(F)(F)F [Example 301, 4-[[2-(6-oxo-2,5-diazaspiro[3.4]octane-2-carbonyl)-2-azaspiro[3.3]heptan-6-yl]oxy]-2-(trifluoromethyl)benzoni-trile] |
| 46.7 nM | CS(=O)(=O)c1cccc(CN2CC3(C2)CN(C(=O)N2CC4(COC(=O)N4)C2)C3)c1 [Example 187, 2-[6-[(3-methylsulfonylphenyl)methyl]-2,6-diazaspiro[3.3]heptane-2-carbonyl]-7-oxa-2,5-diazaspiro[3.4]octan-6-one] |
| 160 nM | Cn1nc(C(F)(F)F)cc1CN1CCC2(CC1)CN(C(=O)N1CC3(CCC(=O)N3)C1)C2 [Example 337, 2-[7-[[2-methyl-5-(trifluoromethyl)pyrazol-3-yl]methyl]-2,7-diazaspiro[3.5]nonane-2-carbonyl]-2,5-diazaspiro[3.4]octan-6-one] |
| 0.05 nM | O=C1NC2(CO1)CN(C(=O)N1CC3(CCC(Oc4cc(Cl)ccc4Cl)CC3)C1)C2 [Example 106, 2-[7-(2,5-dichlorophenoxy)-2-azaspiro[3.5]nonane-2-carbonyl]-7-oxa-2,5-diazaspiro[3.4]octan-6-one] |
| 0.28 nM | O=C1NC2(CO1)CN(C(=O)N1CC3(CCC(Cc4ncc(F)cc4F)C3)C1)C2 (centres unmarked) [Example 103, 2-[6-[(3,5-difluoro-2-pyridyl)methyl]-2-azaspiro[3.4]octane-2-carbonyl]-7-oxa-2,5-diazaspiro[3.4]octan-6-one] |
| 6.42 nM | O=C1COCC2(CN(C(=O)N3CC4(CCC(Cc5ccc(C(F)(F)F)cn5)CC4)C3)C2)N1 [Example 87, 2-[7-[[5-(trifluoromethyl)-2-pyridyl]methyl]-2-azaspiro[3.5]nonane-2-carbonyl]-8-oxa-2,5-diazaspiro[3.5]nonan-6-one] |
| 13.1 nM | O=C1COCC2(CN(C(=O)N3CC4(CCC(Cc5ccc(OC(F)F)nc5)CC4)C3)C2)N1 [Example 133, 2-[7-[[6-(difluoromethoxy)-3-pyridyl]methyl]-2-azaspiro[3.5]nonane-2-carbonyl]-8-oxa-2,5-diazaspiro[3.5]nonan-6-one] |
